Reference: patent US10294202B2, “Pyrrolidinones as herbicides” (FMC Corporation, priority 2013, dated 2019)

Columns and labels:
Test in all cases: Test D pre-/postemergence herbicide test
bromegrass, downy = type: in vivo, Bromus tectorum; details: for Plant response rating: Bromegrass, Downy, scale 0 to 100; for Plant response rating, Bromegrass, Downy: scale 0 to 100 (0 no effect, 100 complete control)
Source text: (§1) Seeds of plant species selected from bluegrass (annual bluegrass, Poa annua), blackgrass (Alopecurus myosuroides), canarygrass (littleseed canarygrass, Phalaris minor), chickweed (common chickweed, Stellaria media), galium (catchweed bedstraw, Galium aparine), bromegrass, downy (downy bromegrass, Bromus tectorum), field poppy (Papaver rhoeas), field violet (Viola arvensis), foxtail, green (green foxtail, Setaria viridis), deadnettle (henbit deadnettle, Lamium amplexicaule), ryegrass, Italian (Italian ryegrass, Lolium multiflorum), kochia (Kochia scoparia), lambsquarters (Chenopodium album), oilseed rape (Brassica napus), pigweed (Amaranthus retroflexus), chamomile (scentless chamomile, Matricaria inodora), Russian thistle (Salsola kali), speedwell (bird's-eye speedwell, Veronica persica), barley, spring (spring barley, Hordeum vulgare), wheat, spring (spring wheat, Triticum aestivum), buckwheat, wild (wild buckwheat, Polygonum convolvulus), mustard, wild (wild mustard, Sinapis arvensis), oat, wild (wild oat, Avena fatua), radish, wild (wild radish, Raphanus raphanistrum), […]), barley, winter (winter barley, Hordeum vulgare), and wheat, winter (winter wheat, Triticum aestivum) were planted into a silt loam soil and treated preemergence with test chemicals formulated in a non-phytotoxic solvent mixture which included a surfactant. At the same time, these species were planted in pots containing Redi-Earth® planting medium (Scotts Company, 14111 Scottslawn Road, Marysville, Ohio 43041) comprising spaghnum peat moss, vermiculite, wetting agent and starter nutrients and treated with postemergence applications of the test chemicals formulated in the same manner. Plants ranged in height from 2 to 18 cm (1- to 4-leaf stage). Treated plants and controls were maintained in a controlled growth environment for 7 to 21 days after which time all species were compared to controls and visually evaluated. Plant response ratings, summarized in Table D, are based on a scale of 0 to 100 where 0 is no effect and 100 is complete control. A dash (-) response means no test result.

blackgrass = type: in vivo, Alopecurus myosuroides; details: for Plant response rating: Blackgrass, scale 0 to 100; for Plant response rating, Blackgrass: scale 0 to 100 (0 no effect, 100 complete control)
Source text: as §1

bluegrass = type: in vivo, Poa annua; details: for Plant response rating: Bluegrass, scale 0 to 100; for Plant response rating, Bluegrass: scale 0 to 100 (0 no effect, 100 complete control)
Source text: as §1

speedwell = type: in vivo, Veronica persica; details: for Plant response rating: Postemergence, Speedwell, scale 0 to 100; for Plant response rating, Speedwell: Preemergence, scale 0 to 100 (0 no effect, 100 complete control)
Source text: as §1

lambsquarters = type: in vivo, Chenopodium album; details: for Plant response rating: Lambsquarters, scale 0 to 100; for Plant response rating, Lambsquarters: scale 0 to 100 (0 no effect, 100 complete control)
Source text: as §1

O=C1NCC(c2ccc(F)c(F)c2)C1C(=O)Nc1ccccc1C(F)(F)F (racemic) [Compound 6] showed a Plant response rating (bromegrass, downy; Postemergence, 16 g ai/ha) of 0, a Plant response rating (bromegrass, downy; Postemergence, 31 g ai/ha) of 0 and a Plant response rating (bromegrass, downy; Postemergence, 62 g ai/ha) of 0. For the same compound, the Plant response rating (bromegrass, downy; Postemergence, 125 g ai/ha) was 0, the Plant response rating (bromegrass, downy; Postemergence, 250 g ai/ha) was 0 and the “Plant response rating, Bromegrass, Downy” value (bromegrass, downy; Preemergence, 62 g ai/ha) was 0. The “Plant response rating, Bromegrass, Downy” value (bromegrass, downy; Preemergence, 16 g ai/ha) was 0, the “Plant response rating, Bromegrass, Downy” value (bromegrass, downy; Preemergence, 31 g ai/ha) was 0 and the Plant response rating (bromegrass, downy; Preemergence, 125 g ai/ha) was 0. For the same compound, the Plant response rating (bromegrass, downy; Preemergence, 250 g ai/ha) was 10, the Plant response rating (blackgrass; Postemergence, 16 g ai/ha) was 0 and the Plant response rating (blackgrass; Postemergence, 31 g ai/ha) was 0. For the same compound, the Plant response rating (blackgrass; Postemergence, 62 g ai/ha) was 5, the Plant response rating (blackgrass; Postemergence, 125 g ai/ha) was 5 and the Plant response rating (blackgrass; Postemergence, 250 g ai/ha) was 10. For the same compound, the “Plant response rating, Blackgrass” value (blackgrass; Preemergence, 62 g ai/ha) was 0, the “Plant response rating, Blackgrass” value (blackgrass; Preemergence, 16 g ai/ha) was 0 and the “Plant response rating, Blackgrass” value (blackgrass; Preemergence, 31 g ai/ha) was 0. It also gave a Plant response rating (blackgrass; Preemergence, 125 g ai/ha) of 0, a Plant response rating (blackgrass; Preemergence, 250 g ai/ha) of 0 and a Plant response rating (bluegrass; Postemergence, 16 g ai/ha) of 0. It also gave a Plant response rating (bluegrass; Postemergence, 31 g ai/ha) of 0, a Plant response rating (bluegrass; Postemergence, 62 g ai/ha) of 0 and a Plant response rating (bluegrass; Postemergence, 125 g ai/ha) of 0. For the same compound, the Plant response rating (bluegrass; Postemergence, 250 g ai/ha) was 0, the “Plant response rating, Bluegrass” value (bluegrass; Preemergence, 62 g ai/ha) was 0 and the “Plant response rating, Bluegrass” value (bluegrass; Preemergence, 16 g ai/ha) was 0. The “Plant response rating, Bluegrass” value (bluegrass; Preemergence, 31 g ai/ha) was 0, the Plant response rating (bluegrass; Preemergence, 125 g ai/ha) was 0 and the Plant response rating (bluegrass; Preemergence, 250 g ai/ha) was 0. For the same compound, the Plant response rating (speedwell; 16 g ai/ha) was 0, the Plant response rating (speedwell; 31 g ai/ha) was 0 and the Plant response rating (speedwell; 62 g ai/ha) was 0. The Plant response rating (speedwell; 125 g ai/ha) was 0, the Plant response rating (speedwell; 250 g ai/ha) was 15 and the “Plant response rating, Speedwell” value (speedwell; 62 g ai/ha) was 10. For the same compound, the “Plant response rating, Speedwell” value (speedwell; 125 g ai/ha) was 30, the “Plant response rating, Speedwell” value (speedwell; 16 g ai/ha) was 0 and the “Plant response rating, Speedwell” value (speedwell; 31 g ai/ha) was 10. The “Plant response rating, Speedwell” value (speedwell; 250 g ai/ha) was 50, the Plant response rating (lambsquarters; Postemergence, 16 g ai/ha) was 0 and the Plant response rating (lambsquarters; Postemergence, 31 g ai/ha) was 10. For the same compound, the Plant response rating (lambsquarters; Postemergence, 62 g ai/ha) was 20, the Plant response rating (lambsquarters; Postemergence, 125 g ai/ha) was 20 and the Plant response rating (lambsquarters; Postemergence, 250 g ai/ha) was 30. The “Plant response rating, Lambsquarters” value (lambsquarters; Preemergence, 62 g ai/ha) was 0, the “Plant response rating, Lambsquarters” value (lambsquarters; Preemergence, 16 g ai/ha) was 0 and the “Plant response rating, Lambsquarters” value (lambsquarters; Preemergence, 31 g ai/ha) was 0. For the same compound, the Plant response rating (lambsquarters; Preemergence, 125 g ai/ha) was 0 and the Plant response rating (lambsquarters; Preemergence, 250 g ai/ha) was 0.

O=C1NCC(c2ccc(F)c(C(F)(F)F)c2)C1C(=O)Nc1cccc(F)c1F (racemic) [Compound 77] was tested, and the “Plant response rating, Bromegrass, Downy” value (bromegrass, downy; Preemergence, 62 g ai/ha) was 0, the “Plant response rating, Bromegrass, Downy” value (bromegrass, downy; Preemergence, 31 g ai/ha) was 0 and the Plant response rating (bromegrass, downy; Preemergence, 125 g ai/ha) was 10. The Plant response rating (bromegrass, downy; Preemergence, 250 g ai/ha) was 25, the “Plant response rating, Blackgrass” value (blackgrass; Preemergence, 62 g ai/ha) was 25 and the “Plant response rating, Blackgrass” value (blackgrass; Preemergence, 31 g ai/ha) was 10. For the same compound, the Plant response rating (blackgrass; Preemergence, 125 g ai/ha) was 40, the Plant response rating (blackgrass; Preemergence, 250 g ai/ha) was 65 and the “Plant response rating, Bluegrass” value (bluegrass; Preemergence, 62 g ai/ha) was 5. For the same compound, the “Plant response rating, Bluegrass” value (bluegrass; Preemergence, 31 g ai/ha) was 0, the Plant response rating (bluegrass; Preemergence, 125 g ai/ha) was 45 and the Plant response rating (bluegrass; Preemergence, 250 g ai/ha) was 55. The “Plant response rating, Speedwell” value (speedwell; 62 g ai/ha) was 25, the “Plant response rating, Speedwell” value (speedwell; 125 g ai/ha) was 35 and the “Plant response rating, Speedwell” value (speedwell; 31 g ai/ha) was 20. The “Plant response rating, Speedwell” value (speedwell; 250 g ai/ha) was 100, the “Plant response rating, Lambsquarters” value (lambsquarters; Preemergence, 62 g ai/ha) was 85 and the “Plant response rating, Lambsquarters” value (lambsquarters; Preemergence, 31 g ai/ha) was 85. The Plant response rating (lambsquarters; Preemergence, 125 g ai/ha) was 90 and the Plant response rating (lambsquarters; Preemergence, 250 g ai/ha) was 90.
